Source: patent publication US20220170028A1, “NOVEL INTERLEUKIN-2 VARIANTS AND BIFUNCTIONAL FUSION MOLECULES THEREOF” (Cugene Inc, priority 2019, published 2022)
Read-outs that look alike come from different tables or passages of the source.

Experiments:
[1] = tested on: Treg cells; experiment: Dose-response pharmacodynamics of Treg cells in mice after a single injection (Example 10); type: in vivo, mouse
Description: Following a single subcutaneous administration of vehicle (PBS) or P-0511 (1, 0.3, 0.1, or 0.03 mg/kg) to female Balb/C mice (n=5/group), peripheral blood was collected on day −2 as baseline, and post dose on days 3, 5, and 7. On day 7, mice were sacrificed, and spleens were harvested. Blood lymphocyte phenotyping, proliferation and expansion were measured by flow cytometry at each timepoint using fresh whole blood.

[2] = tested on: STAT5 phosphorylation in CD4+ Treg cells; experiment: STAT5 phosphorylation in CD4+ Treg cells, human PBMC assay by FACS; type: cell-based
Outline: (§1)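 Donor PBMCs were starved in serum-free buffer at 4° C for 1 h, then 2×10^5 cells were exposed to serial dilutions of IL-2 variants for 30 min at 37° C. After fixation and permeabilization they were stained for CD4, CD25, FOXP3 and pSTAT5. Read-out is percent pSTAT5+ cells among CD4+/Foxp3+/CD25^high (Treg) or CD4+/Foxp3−/CD25^low (Tconv) cells by flow cytometry.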

[3] = tested on: STAT5 phosphorylation in CD4+ Tconv cells; experiment: STAT5 phosphorylation in CD4+ Tconv cells, human PBMC assay by FACS; type: cell-based
Outline: as §1

[4] = tested on: CD4+ Treg vs CD4+ Tconv cells; experiment: STAT5 phosphorylation, selectivity / activity profile Treg versus CD4+ Tconv cells, human PBMC; type: cell-based
Outline: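 Fresh human PBMC from a healthy donor, serum-starved 1 h at 4 °C, then exposed to serial dilutions of IL-2 variants for 30 min at 37 °C. After fixation/permeabilization, cells stained for CD4, CD25, FOXP3 and pSTAT5 and analysed by flow cytometry. Treg (CD4+/Foxp3+/CD25high) and Tconv (CD4+/Foxp3−/CD25low) gated; read-out is percent pSTAT5-positive cells.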

[5] = tested on: CD4+/Foxp3+/CD25+ Treg, CD4+/Foxp3-/CD25+ Teff and CD4+/Foxp3-/CD25- naive T cells; experiment: STAT5 phosphorylation in three CD4+ T cell subsets (Treg, CD4 effector, CD4 naive), human PBMC; type: cell-based
Text: In addition to being assessed for their ability to differentially stimulate Stat5 phosphorylation in CD4 positive Treg (CD4+/Foxp3+/CD25^high) versus Tconv (CD4+/Foxp3−/CD25^low) cells, two variants, P-0511 and P-0512, were further assayed for their ability to stimulate other effector T and NK cells, including CD4 positive Teff (CD4+/Foxp3-/CD25+), CD8 cytotoxic T effector and NK cells in comparison to wild-type IL-2 (P-0250) and three IL-2 benchmark molecules containing V91K, N88R, N88D respectively.
After human PBMC Cells were treated with serial dilutions of test compounds, fixed and permeabilized, washed, and stained with a mixture of anti-CD25-PE, anti-FOXP3-APC, anti-pSTAT5-FITC, and anti-CD4-PerCP-Cy5.5 antibodies, the flow cytometry analysis was gated into CD4+/Foxp3+/CD25+, CD4+/Foxp3−/CD25+, CD4+/Foxp3−/CD25− groups for the Treg, CD4 effector, and CD4 naive T cell subsets, respectively. Data are expressed as a percent of pStat5 positive cells in gated population and illustrated in FIG. 9.

[6] = tested on: STAT5 phosphorylation in CD8+ T cells; experiment: STAT5 phosphorylation in CD8+ T cells, human PBMC; type: cell-based
Text: The Stat5 phosphorylation activity on other responder cells than CD4+ T cell subsets, including CD8+T and NK, by P-0511 was compared to P-0531, the S125I equivalent of wild-type P-0250. […] IL-2 receptors expressed on CD4+ Tconv, CD8+T and NK cells are primarily dimeric IL-2Rs, comprising IL-2R6 and γc.

P-0511: IL-2 L19H/S125I/Q126E Fc fusion, SEQ ID NO: 213
proliferation of Treg cells (percentage of Ki67 positive cells) ([1]; 0.03 mg/kg single s.c., Balb/C mice): minimal effect
Treg/Tconv ratio at peak, based on cell count ([1]; 0.1 mg/kg): 0.06
Treg as percentage of total lymphocytes at the peak ([1]; 0.1 mg/kg single dose): 1.4%
Treg/Tconv ratio at peak, based on cell count ([1]; 0.3 mg/kg): 0.18
Treg as percentage of total lymphocytes at the peak ([1]; 0.3 mg/kg single dose): 3.1%
Treg/Tconv ratio at peak, based on cell count ([1]; 1 mg/kg): 0.27
Treg as percentage of total lymphocytes at the peak ([1]; 1 mg/kg single dose): 4.5%
proliferation of Treg cells (percentage of Ki67 positive cells) ([1]; 1, 0.3, or 0.1 mg/kg single s.c., Balb/C mice): dose-dependent increases
expression of Treg functional markers CD25 and FoxP3 (MFI) ([1]; single s.c. dose, Balb/C mice): increased dose-dependently
potency in ex vivo cell assay relative to P-0560 [2]: over 100 fold
STAT5 phosphorylation activity in CD4+ Tconv cells (in words) [3]: nearly completely abolished
activity profile / selectivity window Treg over CD4+ Tconv (in words) [4]: further widened the Treg selectivity window
Treg Selectivity ([4]; Isoleucine-125 constructs): Yes
pSTAT5 activity profile in Treg, Teff and naive CD4 T cell subsets (in words) [5]: preferential activation of Treg over Teff
pSTAT5 activity profile in Treg, Teff and naive CD4 T cell subsets (in words) ([5]; listed as P-511): superior to both Benchmark-2 and -3
STAT5 phosphorylation activity in CD8+ T cells (in words) [6]: nearly completely abolished
